Each structure is given as a SMILES string.

Assay [1] deals with T1, proteasome subunit beta 5 of E. multilocularis (EmPSMB5, EmuJ_000590200_1) (Echinococcus multilocularis, UniProt A0A068Y5K9).
T1 sequence (A0A068Y5K9 66-269): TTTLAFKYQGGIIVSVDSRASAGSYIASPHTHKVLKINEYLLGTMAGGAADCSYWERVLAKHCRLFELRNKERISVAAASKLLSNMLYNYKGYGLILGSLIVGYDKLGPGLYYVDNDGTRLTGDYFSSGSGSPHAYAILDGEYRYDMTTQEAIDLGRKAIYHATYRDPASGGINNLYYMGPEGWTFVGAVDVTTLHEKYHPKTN
In words: biochemical.

The next assay has as its target bovine chymotrypsin (Bos taurus, UniProt P00766). Nature of the assay: in-gel fluorescent zymography with SLLVT-AMC, chymotrypsin […] ng per lane, single BTZ concentration. It counts as biochemical.

On to `CC(C)C[C@H](NC(=O)[C@H](Cc1ccccc1)NC(=O)c1cnccn1)B(O)O` [BTZ, bortezomib], for which half-maximal inhibition in assay [1] (IC50) required 760 nM. Moreover, the “in-gel fluorescent zymography with SLLVT-AMC, chymotrypsin 5 ng per lane, single” value at bovine chymotrypsin is “BTZ can inhibit also other targets, such as for example chymotrypsin (as shown in the control of Figure 7B)”.

The term IC50 denotes the concentration needed to halve the response being measured. A higher IC50 goes with weaker potency.

Source of the values: publication PMC4256282, “Profound Activity of the Anti-cancer Drug Bortezomib against Echinococcus multilocularis Metacestodes Identifies the Proteasome as a Novel Drug Target for Cestodes” (PLoS Neglected Tropical Diseases, 2014).
